Assay results: patent US20060079453A1, “Hla binding peptides and their uses” (priority 2002, published 2006)
No end group written: not given here.

Experiments:
Experiment in all cases: biochemical
Format in all cases: binding
HLA-DR DRB1*0101 (DR1) = HLA-DR DRB1*0101 (DR1) (Homo sapiens, UniProt P01903+P01911, A100R/D57E/F55L/F60I/F76Y/I96L/L162R/M171V/P40L/Q125E/R42F/V115G/Y59C); conditions: DRB1 *0101
HLA-DR DRB1*0301 (DR3) = HLA-DR DRB1*0301 (DR3) (Homo sapiens, UniProt P01903+P01911, A100K/A102G/A103R/A169T/F55Y/I96L/K41T/L162R/M171V/P40S/Q125H/Q178H/Q39Y/R42S/S66N/T106N/T262R/W38E/Y61H)
HLA-DR DRB1*0401 (DR4) = HLA-DR DRB1*0401 (DR4) (Homo sapiens, UniProt P01903+P01911, A100K/A169T/F76Y/I96L/K127E/L162R/M171V/N62H/P40V/Q125Y/R42H/S133A/S149N/S66Y/V115G/V209L/W38E); conditions: DRB1 *0401
HLA-DR DRB1*0802 (DR8) = HLA-DR DRB1*0802 (DR8) (Homo sapiens, UniProt P01903+P01911, A100R/A103L/A169T/F76Y/H45Y/I96F/K41T/L162R/M171V/P40S/Q125H/Q178H/Q39Y/Q99D/R218S/R42G/S66Y/V115G/W38E)
HLA-DR DRB1*0901 (DR9) = HLA-DR DRB1*0901 (DR9) (Homo sapiens, UniProt P01903+P01911, A100R/A103E/D57H/D86V/F55Y/F60I/F76Y/I96F/K127E/L162R/M171V/P40D/Q125H/Q99R/R33Q/R42F/S133A/S66N/T210M/V115G/W38K/Y107V/Y59G/Y89S); conditions: DRB1 *0901
HLA-DR DRB1*1101 (DR11) = HLA-DR DRB1*1101 (DR11) (Homo sapiens, UniProt P01903+P01911, A100R/A169T/A87E/I96F/K41T/L162R/M171V/P40S/Q125H/Q178H/Q39Y/Q99D/R42S/S66Y/T262R/V115G/W38E); conditions: DRB1 *1101
HLA-DR DRB1*1302 (DR13) = HLA-DR DRB1*1302 (DR13) (Homo sapiens, UniProt P01903+P01911, A100E/A169T/K41T/L162R/M171V/P40S/Q125H/Q178H/Q39Y/Q99D/R42S/S66N/T262R/V115G/W38E/Y61H); conditions: DRBI *1302
HLA-DR DRB1*1501 (DR15) = HLA-DR DRB1*1501 (DR15) (Homo sapiens, UniProt P01903+P01911); conditions: DRBI *1501
HLA-DR DRB3*0101 (DR52) = HLA-DR DRB3*0101 (DR52) (Homo sapiens, UniProt P01903+P79483)
HLA-DR DRB4*0101 (DR53) = HLA-DR DRB4*0101 (DR53) (Homo sapiens, UniProt P01903+P13762, G164S); conditions: DRB4 *0101
HLA-DR DRB5*0101 (DR51) = HLA-DR DRB5*0101 (DR51) (Homo sapiens, UniProt P01903+Q30154); conditions: DRB5 *0101
HLA-DR DRB1*0701 (DR7) = HLA-DR DRB1*0701 (DR7) (Homo sapiens, UniProt P01903+P01911, A100R/A102G/A103Q/D57E/D86V/E43K/F76Y/K127E/L162R/M171V/P40G/Q125H/Q99D/R33Q/R42Y/R54Q/S133A/S66F/T210M/V115G/Y107V/Y59L/Y89S); conditions: DRB1 *0701

Sequence of HLA-DR DRB1*1302 (DR13) (P01903 26-254 limits assumed, other chains not shown): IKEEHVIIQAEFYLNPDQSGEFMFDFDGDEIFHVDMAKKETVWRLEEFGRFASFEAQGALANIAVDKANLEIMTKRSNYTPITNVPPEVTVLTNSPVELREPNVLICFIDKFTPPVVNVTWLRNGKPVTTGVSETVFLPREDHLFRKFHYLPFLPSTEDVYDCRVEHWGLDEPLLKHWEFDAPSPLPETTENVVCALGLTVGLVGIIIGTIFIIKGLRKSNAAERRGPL
Sequence of HLA-DR DRB1*1101 (DR11) (P01903 26-254 limits assumed, other chains not shown): as above
Sequence of HLA-DR DRB1*0301 (DR3) (P01903 26-254 limits assumed, other chains not shown): as above

Row | Molecule | IC50 (HLA-DR DRB1*0101 (DR1)) [µM] | IC50 (HLA-DR DRB1*0301 (DR3)) [µM] | IC50 (HLA-DR DRB1*0401 (DR4)) [µM] | IC50 (HLA-DR DRB1*0802 (DR8)) [µM] | IC50 (HLA-DR DRB1*0901 (DR9)) [µM] | IC50 (HLA-DR DRB1*1101 (DR11)) [µM] | IC50 (HLA-DR DRB1*1302 (DR13)) [µM] | IC50 (HLA-DR DRB1*1501 (DR15)) [µM] | IC50 (HLA-DR DRB3*0101 (DR52)) [µM] | IC50 (HLA-DR DRB4*0101 (DR53)) [µM] | IC50 (HLA-DR DRB5*0101 (DR51)) [µM] | IC50 (HLA-DR DRB1*0701 (DR7)) [µM]
1 | CC[C@H](C)[C@H](NC(=O)[C@@H]1CCCN1C(=O)[C@H](CC(N)=O)NC(=O)[C@@H](N)Cc1c[nH]c2ccccc12)C(=O)N[C@@H](CC(C)C)C(=O)N[C@@H](CC(C)C)C(=O)N[C@@H](Cc1c[nH]c2ccccc12)C(=O)N[C@@H](CCC(N)=O)C(=O)N1CCC[C@H]1C(=O)N[C@H](C(=O)N1CCC[C@H]1C(=O)N[C@H](C(=O)N[C@@H](Cc1c[nH]cn1)C(=O)N[C@H](C(=O)N[C@H](C(=O)O)C(C)C)[C@@H](C)O)C(C)C)[C@@H](C)CC | 0.208 | > 81.8 | 0.695 | 115 | 0.607 | 19.6 | 2.26 | 0.014 | > 8.83 | 0.081 | ≥ 100 | 
2 | GRLEYTLKDRRNFDI | 7.25 | 0.03 |  | 4.92 | > 77.3 | 5 |  | 0.168 | 9.9 |  | 0.796 | 4.96
3 | ITDSRVLERYLLEAK | 1.57 | 6.5 | 1.3 | 0.967 | > 78.9 | 5.28 | > 14.7 | 0.018 | > 42.2 |  |  | 7.5
4 | LTELYFEKGEYFVEM |  | 0.592 | 8.05 | 18.8 | 26.9 | > 18.9 | 3.16 | > 2.37 | 0.124 | 0.601 | 6.66 | 
5 | SNLELLRISLLLIQS | 0.072 | 43.5 |  | > 33.3 | 3.42 | 23.7 |  | 0.059 | > 91.9 |  | 50.1 | 0.642
6 | TSITSLYQLENYTN |  | 81.3 |  | 26.8 | 9.95 | 1.1 | > 17.1 | 0.099 | > 95.2 |  | 6.05 | 6.06
7 | TTLLRALGAQKEAIS | 0.019 | 107 | 0.339 | 0.652 | 4.61 | 0.86 | 1.51 | 0.089 | 33.3 |  | 0.021 | 4.28
